Experimental data taken from ChEMBL document CHEMBL6182928, “Characterization of Hepatotropic Small Molecule Inhibitors of Hypoxia Inducible Factor Prolyl Hydroxylase in the Prevention of Oxygen-Induced Retinopathy” (J Med Chem, 2025).
Calls of active or inactive are those of the source. No cut-off for these calls is given here.

What was measured:
[1] = molecular target: Hypoxia-inducible factor 1-alpha (Homo sapiens) (UniProt Q16665); experiment: Induction of stabilization of HIF-1alpha in human Hep3B cells by measuring fold change protein level at 500 uM incubated for 3 hrs by Western blot analysis; assay type: cell-based
Hypoxia-inducible factor 1-alpha (Homo sapiens), sequence (Q16665 whole entry, looked up): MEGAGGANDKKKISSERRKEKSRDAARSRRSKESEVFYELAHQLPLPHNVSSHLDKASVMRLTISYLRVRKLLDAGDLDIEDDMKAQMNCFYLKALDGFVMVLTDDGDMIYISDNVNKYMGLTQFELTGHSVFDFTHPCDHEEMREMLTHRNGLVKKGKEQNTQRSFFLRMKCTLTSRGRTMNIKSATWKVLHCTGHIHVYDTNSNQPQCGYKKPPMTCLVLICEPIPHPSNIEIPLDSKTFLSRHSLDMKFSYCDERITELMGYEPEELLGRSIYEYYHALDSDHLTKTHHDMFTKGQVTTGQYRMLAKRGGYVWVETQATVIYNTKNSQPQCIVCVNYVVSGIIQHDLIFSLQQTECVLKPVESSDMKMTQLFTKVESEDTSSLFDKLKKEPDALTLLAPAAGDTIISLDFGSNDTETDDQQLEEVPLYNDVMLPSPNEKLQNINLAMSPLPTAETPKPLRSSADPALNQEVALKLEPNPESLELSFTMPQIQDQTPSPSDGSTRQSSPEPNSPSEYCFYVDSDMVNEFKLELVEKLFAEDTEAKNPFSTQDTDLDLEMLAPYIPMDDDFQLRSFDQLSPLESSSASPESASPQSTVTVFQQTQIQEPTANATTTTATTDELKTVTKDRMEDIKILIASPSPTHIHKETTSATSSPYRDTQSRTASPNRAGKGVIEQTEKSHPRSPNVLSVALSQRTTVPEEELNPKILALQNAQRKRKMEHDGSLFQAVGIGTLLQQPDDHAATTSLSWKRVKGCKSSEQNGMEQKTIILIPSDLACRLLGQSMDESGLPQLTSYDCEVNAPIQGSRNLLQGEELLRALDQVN

[2] = molecular target: Hypoxia-inducible factor 1-alpha (Mus musculus) (UniProt Q61221); experiment: Induction of stabilization of HIF-1alpha in mouse NIH-3T3-HIF/Luc cells assessed as activation of HRE by measuring […] at 500 uM incubated for 24 hrs by Bright-glo luciferase assay; assay type: cell-based
Hypoxia-inducible factor 1-alpha (Mus musculus), sequence (Q61221 whole entry): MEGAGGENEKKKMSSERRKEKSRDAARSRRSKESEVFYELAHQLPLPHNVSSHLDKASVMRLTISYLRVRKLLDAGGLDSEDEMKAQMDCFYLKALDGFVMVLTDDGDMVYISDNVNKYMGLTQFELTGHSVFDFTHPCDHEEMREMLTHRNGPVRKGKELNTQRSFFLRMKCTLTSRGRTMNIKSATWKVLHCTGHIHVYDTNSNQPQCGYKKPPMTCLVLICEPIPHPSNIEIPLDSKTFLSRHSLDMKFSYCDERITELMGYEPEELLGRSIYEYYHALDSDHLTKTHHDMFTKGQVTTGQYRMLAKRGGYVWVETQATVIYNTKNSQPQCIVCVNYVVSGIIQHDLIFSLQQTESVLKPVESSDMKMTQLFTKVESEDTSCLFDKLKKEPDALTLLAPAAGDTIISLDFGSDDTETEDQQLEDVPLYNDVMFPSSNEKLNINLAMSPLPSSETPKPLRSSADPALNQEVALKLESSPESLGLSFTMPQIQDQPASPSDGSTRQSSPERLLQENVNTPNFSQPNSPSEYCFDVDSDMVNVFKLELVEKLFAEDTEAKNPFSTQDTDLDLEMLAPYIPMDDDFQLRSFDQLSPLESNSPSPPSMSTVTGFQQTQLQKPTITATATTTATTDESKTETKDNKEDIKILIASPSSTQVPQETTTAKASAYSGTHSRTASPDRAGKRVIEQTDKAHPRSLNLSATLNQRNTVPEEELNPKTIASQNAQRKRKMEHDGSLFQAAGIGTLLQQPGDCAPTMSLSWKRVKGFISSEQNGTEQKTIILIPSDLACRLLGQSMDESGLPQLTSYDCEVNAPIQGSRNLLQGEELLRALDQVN

[3] = molecular target: Hypoxia-inducible factor 1-alpha (Homo sapiens) (UniProt Q16665); experiment: Induction of stabilization of HIF-1alpha in human Hep3B cells incubated for 24 hrs by Immunoblot analysis; assay type: cell-based
[4] = molecular target: Hypoxia-inducible factor 1-alpha (Mus musculus) (UniProt Q61221); experiment: Induction of stabilization of HIF-1alpha in mouse NIH-3T3-HIF/Luc cells assessed as activation of HRE at 1 mM incubated for 24 hrs by Bright-glo luciferase assay; assay type: cell-based
[5] = molecular target: Hypoxia-inducible factor 1-alpha (Homo sapiens) (UniProt Q16665); experiment: Induction of stabilization of HIF-1alpha in human Hep3B cells at 1 mM measured at 3 to 6 hrs by Immunoblot analysis; assay type: cell-based; conditions: time 3-6 hrs
[6] = molecular target: Hypoxia-inducible factor 1-alpha (Mus musculus) (UniProt Q61221); experiment: Induction of stabilization of HIF-1alpha in mouse NIH-3T3-HIF/Luc cells assessed as activation of HRE measured at 24 hrs by Bright-glo luciferase assay; assay type: cell-based
[7] = molecular target: Hypoxia-inducible factor 1-alpha (Homo sapiens) (UniProt Q16665); experiment: Induction of stabilization of HIF-1alpha in human Hep3B cells at 1 to 4 mM measured at 24 hrs by Immunoblot analysis; assay type: cell-based; conditions: dose 1-4 mM
[8] = molecular target: Hypoxia-inducible factor 1-alpha (Mus musculus) (UniProt Q61221); experiment: Induction of stabilization of HIF-1alpha in mouse NIH-3T3-HIF/Luc cells assessed as activation of HRE at 1 to 4 mM measured at 48 hrs by Bright-glo luciferase assay; assay type: cell-based; conditions: dose 1-4 mM
[9] = molecular target: Hypoxia-inducible factor 1-alpha (Homo sapiens) (UniProt Q16665); experiment: Induction of stabilization of HIF-1alpha in human Hep3B cells measured at 3 hrs by Western blot analysis; assay type: cell-based
[10] = test system: Mus musculus; experiment: In vivo inhibition of PHD in Luc-ODD mouse model assessed as stabilization of HIF-1alpha in kidney at 1 mM, ip single dose on postnatal day 8 measured after 3 hrs by Bright-glo luciferase assay; assay type: functional, organism-based
[11] = test system: Mus musculus; experiment: In vivo inhibition of PHD in Luc-ODD mouse model assessed as stabilization of HIF-1alpha in liver at 1 mM, ip single dose on postnatal day 8 measured after 3 hrs by Bright-glo luciferase assay; assay type: functional, organism-based
[12] = test system: Mus musculus; experiment: In vivo inhibition of PHD in Luc-ODD mouse model assessed as stabilization of HIF-1alpha in liver at 1 mM, ip single dose on postnatal day 7 measured after 24 hrs by Bright-glo luciferase assay; assay type: functional, organism-based
[13] = test system: Mus musculus; experiment: In vivo inhibition of PHD in Luc-ODD mouse model assessed as stabilization of HIF-1alpha in brain at 1 mM, ip single dose on postnatal day 7 measured at 3 to 24 hrs by Bright-glo luciferase assay; assay type: functional, organism-based; conditions: time 3-24 hrs
[14] = test system: Mus musculus; experiment: (§1) Protection against oxygen-induced retinopathy in wild type C57BL/6J mouse pup assessed as reduction in retinal vaso-obliteration at 1 mmol/Kg, ip administered on postnatal day 6, 8, 10 and reared in 75% oxygen exposure on postnatal day 7 to day 12 and measured on postnatal day 17 by lectin based staining analysis; assay type: functional, organism-based; conditions: time 12.0 day
[15] = test system: Mus musculus; experiment: as §1, with “neovascularization” for “vaso-obliteration”; assay type: functional, organism-based; conditions: time 12.0 day
[16] = test system: Mus musculus; experiment: as §1, with “liver-specific HIF knockout (LHKO)” for “wild type C57BL/6J”; assay type: functional, organism-based; conditions: time 12.0 day
[17] = test system: Mus musculus; experiment: as §1, with “avascular retina” for “retinal vaso-obliteration”; assay type: functional, organism-based; conditions: time 12.0 day
[18] = test system: Mus musculus; experiment: Effect on myelination in oxygen-induced hypomyelination mouse pup model assessed as effect on myelin basic protein level in brain administered as ip dose on postnatal day 3, 5, 7 and reared in 80% oxygen exposure on postnatal day 4 to day 8 and measured on postnatal day 11 by Western blot analysis; assay type: functional, organism-based; conditions: time 9.0 day
[19] = test system: Mus musculus; experiment: Effect on myelination in oxygen-induced hypomyelination mouse pup model assessed as effect on HIF-1alpha level in brain administered as ip dose on postnatal day 3, 5, 7 and reared in 80% oxygen exposure on postnatal day 4 to day 8 and measured on postnatal day 11 by Western blot analysis; assay type: functional, organism-based; conditions: time 9.0 day
[20] = test system: Mus musculus; experiment: (§2) Protection against oxygen-induced hypomyelination in mouse pup assessed as increase in serpine1 mRNA level in liver administered as ip dose on postnatal day 3, 5, 7 and reared in 80% oxygen exposure on postnatal day 4 to day 8 and measured on postnatal day 11; assay type: functional, organism-based; conditions: time 9.0 day
[21] = test system: Mus musculus; experiment: Protection against oxygen-induced hypomyelination in mouse pup assessed as increase in vegf mRNA level in liver administered as ip dose on postnatal day 3, 5, 7 and reared in 80% oxygen exposure on postnatal day 4 to day 8 and measured on postnatal day 11; assay type: functional, organism-based; conditions: time 9.0 day
[22] = test system: Mus musculus; experiment: Protection against oxygen-induced hypomyelination in mouse pup assessed as increase in Bnip3 mRNA level in liver administered as ip dose on postnatal day 3, 5, 7 and reared in 80% oxygen exposure on postnatal day 4 to day 8 and measured on postnatal day 11; assay type: functional, organism-based; conditions: time 9.0 day
[23] = test system: Mus musculus; experiment: Protection against oxygen-induced hypomyelination in mouse pup assessed as increase in Cox4i2 mRNA level in liver administered as ip dose on postnatal day 3, 5, 7 and reared in 80% oxygen exposure on postnatal day 4 to day 8 and measured on postnatal day 11; assay type: functional, organism-based; conditions: time 9.0 day
[24] = test system: Mus musculus; experiment: (§3) Protection against oxygen-induced retinopathy in mouse pup assessed as astrocyte survival administered as ip dose on postnatal day 6, 8, 10 and reared in 75% oxygen exposure on postnatal day 7 to day 12 and measured on postnatal day 17 by isolectin/GFAP based staining analysis; assay type: functional, organism-based; conditions: time 12.0 day
[25] = test system: Mus musculus; experiment: as §3, with “glia preservation in total retinal flat mount” for “astrocyte survival”; assay type: functional, organism-based; conditions: time 12.0 day
[26] = test system: Mus musculus; experiment: as §2, with “bipolar cell activity by measuring amplitude of ERG b-wave” for “serpine1 mRNA level in liver”, “11 by electroretinogram analysis” for “11”; assay type: functional, organism-based; conditions: time 9.0 day

**Q.** What does the source list for `COC(=O)C(=O)NCC(=O)OCOC(C)=O`?
**A.** fold change (FC) [1]: 2; fold change (FC) [2]: < 1

**Q.** How did the fold change (FC) [1] turn out when `CCC(=O)OCOC(=O)CNC(=O)C(=O)OC` was run?
**A.** 1

**Q.** And the fold change (FC) [2]?
**A.** < 1

**Q.** With `COC(=O)OC(C)OC(=O)CNC(=O)C(=O)OC` (centres undefined) as the compound, how does the fold change (FC) [1] read?
**A.** 3

**Q.** What about the fold change (FC) [2] of the same compound?
**A.** < 2

**Q.** Which results are given for `CCOC(=O)OC(C)OC(=O)CNC(=O)C(=O)OC` (centres undefined)?
**A.** fold change (FC) [1]: 3; fold change (FC) [2]: < 2

**Q.** What does the source list for `COC(=O)C(=O)NCC(=O)OC(C)OC(C)=O` (centres undefined)?
**A.** fold change (FC) [1]: 6; fold change (FC) [2]: < 2

**Q.** What does the source list for `COC(=O)C(=O)NCC(=O)OCOC(=O)OC(C)C`?
**A.** fold change (FC) [1]: < 1; fold change (FC) [2]: < 1

**Q.** For `COC(=O)C(=O)NCC(=O)OCOC(=O)C(C)C`, which fold change (FC) [1] is on record?
**A.** < 1

**Q.** And the fold change (FC) [2]?
**A.** < 1

**Q.** Which results are given for `COC(=O)C(=O)NCC(=O)OCOC(=O)Oc1ccccc1`?
**A.** fold change (FC) [1]: < 1; fold change (FC) [2]: < 1

**Q.** Which fold change (FC) [1] does the source give for `CCOC(=O)OCOC(=O)CNC(=O)C(=O)OC` here?
**A.** < 1

**Q.** What about the fold change (FC) [2] of the same compound?
**A.** < 1

**Q.** For `COC(=O)C(=O)NCC(=O)OC(C)OC(=O)C(C)(C)C` (centres undefined), which fold change (FC) [1] is on record?
**A.** 6

**Q.** What about the fold change (FC) [2] of the same compound?
**A.** < 2

**Q.** Which fold change (FC) [1] does the source give for `COC(=O)C(=O)NCC(=O)OC(C)OC(=O)OC(C)C` (centres undefined) here?
**A.** 3

**Q.** What about the fold change (FC) [2] of the same compound?
**A.** < 2

**Q.** What does the source list for `COC(=O)C(=O)NCC(=O)OCOC(=O)c1ccccc1`?
**A.** fold change (FC) [1]: 3; fold change (FC) [2]: < 2

**Q.** Which results are given for `COC(=O)OCOC(=O)CNC(=O)C(=O)OC`?
**A.** fold change (FC) [1]: < 1; fold change (FC) [2]: < 1

**Q.** Which fold change (FC) [1] does the source give for `CCC(=O)OC(C)OC(=O)CNC(=O)C(=O)OC` (centres undefined) here?
**A.** 4

**Q.** And the fold change (FC) [2]?
**A.** < 2

**Q.** `COC(=O)C(=O)NCC(=O)OC(C)C` was tested. Which Activity [3] did it give?
**A.** Active

**Q.** And the Activity [4]?
**A.** Active

**Q.** And the Activity [5]?
**A.** Active

**Q.** And the ED50 [6]?
**A.** 1140 µM

**Q.** What about the Activity [7] of the same compound?
**A.** inactive

**Q.** What about the Activity [8] of the same compound?
**A.** inactive

**Q.** What about the ED50 [9] of the same compound?
**A.** 2130 µM

**Q.** And the Activity [10]?
**A.** Active

**Q.** What about the Activity [11] of the same compound?
**A.** Active

**Q.** And the Activity [12]?
**A.** Active

**Q.** And the Activity [13]?
**A.** inactive

**Q.** What about the Activity [14] of the same compound?
**A.** Active

**Q.** And the Activity [15]?
**A.** Active

**Q.** And the Activity [16]?
**A.** Active; Less Protected Compared To Compound Treated Wild-Type Mouse

**Q.** And the Activity [17]?
**A.** Active

**Q.** And the Activity [18]?
**A.** inactive

**Q.** What about the Activity [19] of the same compound?
**A.** inactive

**Q.** What about the Activity [20] of the same compound?
**A.** Active; Compound Showed Higher Mrna Expression In Liver Compared To Brain

**Q.** And the Activity [21]?
**A.** Active; Compound Showed Higher Mrna Expression In Liver Compared To Brain

**Q.** And the Activity [22]?
**A.** Active; Compound Showed Higher Mrna Expression In Liver Compared To Brain

**Q.** And the Activity [23]?
**A.** Active; Compound Showed Higher Mrna Expression In Liver Compared To Brain

**Q.** And the Activity [24]?
**A.** Active

**Q.** And the Activity [25]?
**A.** Active

**Q.** What about the Activity [26] of the same compound?
**A.** Active

**Q.** With `COC(=O)C(=O)NCC(=O)OCOC(=O)OC(C)(C)C` as the compound, how does the fold change (FC) [1] read?
**A.** < 1

**Q.** What about the fold change (FC) [2] of the same compound?
**A.** < 1

**Q.** Which results are given for `COC(=O)C(=O)NCC(=O)OC(C)OC(=O)Oc1ccccc1` (centres undefined)?
**A.** fold change (FC) [1]: 5; fold change (FC) [2]: < 2

**Q.** Which fold change (FC) [1] does the source give for `COC(=O)C(=O)NCC(=O)OC(C)OC(=O)OC(C)(C)C` (centres undefined) here?
**A.** 2

**Q.** And the fold change (FC) [2]?
**A.** < 2

**Q.** Which results are given for `COC(=O)C(=O)NCC(=O)OC(C)OC(=O)c1ccccc1` (centres undefined)?
**A.** fold change (FC) [1]: 5; fold change (FC) [2]: < 2

**Q.** What does the source list for `COC(=O)C(=O)NCC(=O)OC(C)OC(=O)C(C)C` (centres undefined)?
**A.** fold change (FC) [1]: 7; fold change (FC) [2]: < 2

**Q.** What does the source list for `COC(=O)C(=O)NCC(=O)OCOC(=O)C(C)(C)C`?
**A.** fold change (FC) [1]: 1; fold change (FC) [2]: < 1
